Reference: patent publication US20120052122A1, “Treatment Of Chronic Obstructive Pulmonary Disease With Phosphodiesterase-4 Inhibitor” (Nycomed GmbH, priority 2010, published 2012)

Legend:
[1] = human, in vivo
[2] = system: CYP 1A2, 2A6, 2B6, 2C8, 2C9, 2C19, 2D6, 2E1, 3A4/5, or 4A9/11; test: CYP inhibition in human liver microsomes; details: therapeutic plasma concentrations

Absorption or pharmacokinetics on co-administration with an antacid [1]: did not alter
Linearity of pharmacokinetics (Human pharmacokinetics; 250 mcg to 1,000 mcg): dose-proportional
Time of maximum plasma concentrations after dosing (Human pharmacokinetics; fasted state): about eight
Cmax (Human pharmacokinetics; in vivo): 8.5 ng/mL
Plasma AUC (Human pharmacokinetics; in vivo): 315 ugxh/L
Time to steady state plasma concentrations (Human pharmacokinetics; once daily dosing): ~6 days
Median plasma effective half-life (Human pharmacokinetics; oral dose): ~30 h
Inhibition of CYP 1A2, 2A6, 2B6, 2C8, 2C9, 2C19, 2D6, 2E1, 3A4/5, or 4A9/11 [2]: do not inhibit
Compound: O=C(Nc1c(Cl)c[n+]([O-])cc1Cl)c1ccc(OC(F)F)c(OCC2CC2)c1 [roflumilast N-oxide]
